Data published in US7592365B2, “Substituted pyrroles, compositions containing same, method for making same and use thereof” (Aventis Pharma S.A., priority 2005, dated 2009).

Key:
[1] = molecular target: T1, human KDR enzyme (cytoplasmic domain, GST fusion) (Homo sapiens, UniProt P35968); assay: Phosphorylation of substrate by the KDR enzyme in vitro, scintillation technique; assay type: biochemical; conditions: 2 μM cold ATP, PLCγ SH2-SH3 substrate, 1 hour at 37° C.; read-out: KDR IC 50
T1 construct: The cytoplasmic domain of the human KDR enzyme was cloned in a GST fusion form; GST; made in house; host or cells: SF21 insect cells (baculovirus)
T1 sequence (P35968 786-1356 limits assumed): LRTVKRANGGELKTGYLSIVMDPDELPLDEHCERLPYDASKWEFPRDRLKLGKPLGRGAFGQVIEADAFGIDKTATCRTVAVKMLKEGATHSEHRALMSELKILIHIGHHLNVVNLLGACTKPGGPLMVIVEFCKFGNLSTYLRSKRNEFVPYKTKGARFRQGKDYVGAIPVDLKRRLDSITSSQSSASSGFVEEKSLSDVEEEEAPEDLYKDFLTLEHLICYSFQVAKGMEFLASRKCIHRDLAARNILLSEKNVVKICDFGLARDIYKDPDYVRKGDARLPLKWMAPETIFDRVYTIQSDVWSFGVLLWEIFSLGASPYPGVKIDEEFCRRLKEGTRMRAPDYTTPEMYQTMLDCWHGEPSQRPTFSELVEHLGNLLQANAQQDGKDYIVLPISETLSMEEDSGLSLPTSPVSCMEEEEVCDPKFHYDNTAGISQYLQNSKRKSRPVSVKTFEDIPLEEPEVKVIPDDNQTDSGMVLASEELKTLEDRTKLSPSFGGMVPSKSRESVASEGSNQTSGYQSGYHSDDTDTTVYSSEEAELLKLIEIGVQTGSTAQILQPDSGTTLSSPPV
Description: The inhibitory effect of the compounds is determined in a test of phosphorylation of substrate by the KDR enzyme in vitro by a scintillation technique (96-well plate, NEN).
The cytoplasmic domain of the human KDR enzyme was cloned in a GST fusion form into the baculovirus expression vector pFastBac. The protein was expressed in SF21 cells and purified to about 60% homogeneity.
The kinase activity of KDR is measured in 20 mM MOPS, 10 mM MgCl2, 10 mM MnCl2, 1 mM DTT, 2.5 mM EGTA, 10 mM b-glycerophosphate, pH=7.2, in the presence of 10 mM MgCl2, 100 μM Na3VO4, 1 mM NaF. 10 μl of the compound are added to 70 μl of kinase buffer containing 100 ng of KDR enzyme at 4° C. The reaction is initiated by adding 20 μl of solution containing 2 μg of substrate (SH2—SH3 fragment of PLCγ expressed in the form of a GST fusion protein), 2 μCi γ ^33P[ATP] and 2 μM cold ATP. After incubating for 1 hour at 37° C., the reaction is stopped by adding 1 volume (100 μl) of 200 mM EDTA. The incubation buffer is removed and the wells are washed three times with 300 μl of PBS. The radioactivity is measured in each well using a Top Count NXT (Packard) radioactivity counter.
The background noise is determined by measuring the radioactivity in four different wells containing radioactive ATP and the substrate alone.
A control for total activity is measured in four different wells all containing the reagents (γ^33P-[ATP], KDR and PLCγ substrate) but in the absence of compound.
The inhibition of the KDR activity with the compound of the invention is expressed as percentage inhibition of the control activity determined in the absence of compound.
The compound SU5614 (Calbiochem) (1 μM) is included in each plate as control for inhibition.

[2] = molecular target: T2, human FAK (Homo sapiens, UniProt Q05397); assay: FAK autophosphorylation inhibition, time-resolved fluorescence test (HTRF); assay type: biochemical; conditions: 15 μM ATP, 1 hour at 37° C.; read-out: FAK IC 50
T2 construct: The complete human FAK cDNA, whose N-terminal end was labelled with histidine, was cloned into a baculovirus expression vector pFastBac HTc; made in house
T2 sequence (Q05397 whole entry): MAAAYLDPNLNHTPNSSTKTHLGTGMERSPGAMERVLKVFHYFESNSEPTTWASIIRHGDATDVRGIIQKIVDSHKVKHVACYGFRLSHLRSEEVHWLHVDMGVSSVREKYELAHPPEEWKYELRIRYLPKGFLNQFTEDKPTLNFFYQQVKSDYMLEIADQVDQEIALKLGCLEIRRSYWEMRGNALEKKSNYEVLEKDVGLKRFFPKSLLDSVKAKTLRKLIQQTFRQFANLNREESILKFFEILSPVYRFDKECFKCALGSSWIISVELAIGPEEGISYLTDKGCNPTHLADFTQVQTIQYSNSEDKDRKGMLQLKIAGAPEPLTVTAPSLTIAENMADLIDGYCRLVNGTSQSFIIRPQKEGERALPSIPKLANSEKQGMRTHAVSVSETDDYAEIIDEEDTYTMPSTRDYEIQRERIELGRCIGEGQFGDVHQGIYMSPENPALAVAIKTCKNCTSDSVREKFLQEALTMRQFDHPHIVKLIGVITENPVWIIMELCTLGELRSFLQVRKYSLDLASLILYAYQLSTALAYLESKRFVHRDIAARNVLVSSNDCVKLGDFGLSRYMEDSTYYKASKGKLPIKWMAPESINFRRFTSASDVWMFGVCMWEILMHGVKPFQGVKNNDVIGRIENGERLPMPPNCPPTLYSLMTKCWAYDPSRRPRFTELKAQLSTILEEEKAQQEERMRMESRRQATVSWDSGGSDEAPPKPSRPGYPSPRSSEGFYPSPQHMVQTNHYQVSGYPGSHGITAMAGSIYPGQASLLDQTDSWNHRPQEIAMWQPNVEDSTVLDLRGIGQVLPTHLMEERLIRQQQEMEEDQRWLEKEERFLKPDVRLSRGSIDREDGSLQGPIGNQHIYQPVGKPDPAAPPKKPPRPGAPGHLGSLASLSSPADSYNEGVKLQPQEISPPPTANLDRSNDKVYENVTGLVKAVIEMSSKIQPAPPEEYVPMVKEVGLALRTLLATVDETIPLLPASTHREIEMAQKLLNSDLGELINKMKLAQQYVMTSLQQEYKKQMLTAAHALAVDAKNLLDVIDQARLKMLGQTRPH
Description: The inhibitory activity of the compounds on FAK is determined by a measurement of the inhibition of the autophosphorylation of the enzyme using a time-resolved fluorescence test (HTRF).
The complete human FAK cDNA, whose N-terminal end was labelled with histidine, was cloned into a baculovirus expression vector pFastBac HTc. The protein was expressed and purified at about 70% homogeneity.
The kinase activity is determined by incubating the enzyme (6.6 μg/ml) with various concentrations of test compound in a 50 mM Hepes buffer, pH=7.2, containing 10 mM MgCl2, 100 μM Na3VO4, 15 μM ATP for 1 hour at 37° C. The enzymatic reaction is stopped by adding Hepes buffer, pH=7.0, containing 0.4 mM KF, 133 mM EDTA, 0.1% BSA and the labelling is carried out, for 1 to 2 hours at room temperature, by adding to this buffer an anti-histidine antibody labelled with XL665 and a monoclonal antibody phospho-specific for tyrosine, conjugated with europium cryptate (Eu-K). The characteristics of the two fluorophores are available in G. Mathis et al., Anticancer Research, 1997, 17, pages 3011-3014. The energy transfer between the excited europium cryptate to the acceptor XL665 is proportional to the degree of autophosphorylation of FAK. The signal of long duration specific for XL-665 is measured in a Packard Discovery plate counter. All the assays are performed in duplicate and the mean of the two assays is calculated. The inhibition of the FAK autophosphorylation activity with compounds of the invention is expressed as a percentage inhibition relative to a control whose activity is measured in the absence of test compound. For the calculation of the % inhibition, the [signal at 665 nm/signal at 620 nm] ratio is considered.

[3] = molecular target: T3, human Tie2 (intracellular domain 776-1124, GST fusion) (Homo sapiens, UniProt Q02763); assay: Phosphorylation of PLC by Tie2 (GST-Tie2), FlashPlate radioactivity test; assay type: biochemical; conditions: 2 μM cold ATP, GST-PLC substrate, 1 hour at 37° C.; read-out: TEI2 IC 50
T3 construct: the amino acids of the intracellular domain 776-1124; made in house
T3 sequence (Q02763 776-1124): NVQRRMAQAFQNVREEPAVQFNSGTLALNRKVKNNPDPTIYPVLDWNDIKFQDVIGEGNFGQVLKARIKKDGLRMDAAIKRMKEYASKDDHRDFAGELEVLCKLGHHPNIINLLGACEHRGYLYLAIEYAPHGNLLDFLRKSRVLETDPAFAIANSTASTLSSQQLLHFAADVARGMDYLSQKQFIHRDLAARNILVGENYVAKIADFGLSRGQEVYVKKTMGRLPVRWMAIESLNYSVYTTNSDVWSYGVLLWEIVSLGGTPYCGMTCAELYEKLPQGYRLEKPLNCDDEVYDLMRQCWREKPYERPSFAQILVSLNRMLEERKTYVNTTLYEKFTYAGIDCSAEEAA
Description: The coding sequence for human Tie2 corresponding to the amino acids of the intracellular domain 776-1124 was generated by PCR using the cDNA isolated from human placenta as model. This sequence was introduced into a baculovirus expression vector pFastBacGT in the form of a GST fusion protein.
The inhibitory effect of the molecules is determined in a test of phosphorylation of PLC by Tie2 in the presence of GST-Tie2 purified to about 80% homogeneity. The substrate is composed of the SH2—SH3 fragments of PLC expressed in the form of the GST fusion protein.
The kinase activity of Tie2 is measured in a 20 mM MOPS buffer, pH 7.2, containing 10 mM MgCl2, 10 mM MnCl2, 1 mM DTT, 10 mM glycero-phosphate. A reaction mixture composed of 70 μl of kinase buffer containing 100 ng of GST-Tie2 enzyme per well is deposited in a FlashPlate 96-well plate kept on ice. 10 μl of the test molecule diluted in DMSO to a concentration of 10% maximum are then added. For a given concentration, each measurement is carried out in quadruplicate. The reaction is initiated by adding 20 μl of solution containing 2 μg of GST-PLC, 2 μM of cold ATP and 1 μCi of d′^33P[ATP]. After incubating for 1 hour at 37° C., the reaction is stopped by adding 1 volume (100 μl) of EDTA at 200 mM. After removing the incubation buffer, the wells are washed three times with 300 μl of PBS. The radioactivity is measured on a Wallac MicroBeta1450.
The inhibition of the Tie2 activity is calculated and expressed as a percentage inhibition relative to the control activity determined in the absence of compound.

IC50 [1] | IC50 [2] | IC50 [3] | melting point | Compound
13 nM | 717 nM | 125 nM |  | CC(=O)Nc1[nH]cc(-c2ccc(NC(=O)Nc3ccc(C)c(C)c3)cc2)c1C(N)=O [Example 19, 2-Acetylamino-4-{4-[3-(3,4-dimethylphenyl)ureido]phenyl}-1H-pyrrole-3-carboxamide]
6470 nM | 2060 nM | 69 nM |  | NC(=O)c1c[nH]cc1-c1ccc(NC(=O)Nc2cc(C(F)(F)F)ccc2F)cc1 [Example 1, 4-{4-[3-(2-Fluoro-5-trifluoromethylphenyl)ureido]phenyl}-1H-pyrrole-3-carboxamide]
19 nM | 163 nM | 118 nM |  | CC(=O)Nc1[nH]cc(-c2ccc(NC(=O)Nc3ccc(OC(F)(F)F)cc3)cc2)c1C(N)=O [Example 21, 2-Acetylamino-4-{4-[3-(4-trifluoromethoxyphenyl)ureido]phenyl}-1H-pyrrole-3-carboxamide]
 |  |  | 266 °C | CC(=O)Nc1[nH]cc(-c2ccc(NC(=O)Nc3ccc(C)c(C(F)(F)F)c3)cc2)c1C(N)=O [Example 40, 2-Acetylamino-4-{4-[3-(4-methyl-3-trifluoromethylphenyl)ureido]phenyl}-1H-pyrrole-3-carboxamide]
42 nM | 266 nM | 11 nM |  | CCCC(=O)Nc1[nH]cc(-c2ccc(NC(=O)Nc3cc(C(F)(F)F)ccc3F)cc2)c1C(N)=O [Example 5, 2-Butyrylamino-4-{4-[3-(2-fluoro-5-trifluoromethylphenyl)ureido]phenyl}-1H-pyrrole-3-carboxamide]
